In patent EP0873990A1, “BENZOIC ACID COMPOUNDS AND MEDICINAL USE THEREOF” (YOSHITOMI PHARMACEUTICAL INDUSTRIES, LTD., priority 1995, dated 1997):
Where a name gives a salt, the structure may show the parent alone. Read-outs that look alike come from different tables or passages of the source. Values belong to the molecule of their own block, whether it stands above or below them.

Assays:
[1] = target: T1, 5-HT4 receptor (Cavia porcellus, UniProt O70528); assay: biochemical; type: binding, guinea pig
T1 construct: crude synapse membrane sample was prepared from guinea pig striatum; from tissue; host or cells: guinea pig striatum, crude synaptic membranes
T1 sequence (O70528 whole entry): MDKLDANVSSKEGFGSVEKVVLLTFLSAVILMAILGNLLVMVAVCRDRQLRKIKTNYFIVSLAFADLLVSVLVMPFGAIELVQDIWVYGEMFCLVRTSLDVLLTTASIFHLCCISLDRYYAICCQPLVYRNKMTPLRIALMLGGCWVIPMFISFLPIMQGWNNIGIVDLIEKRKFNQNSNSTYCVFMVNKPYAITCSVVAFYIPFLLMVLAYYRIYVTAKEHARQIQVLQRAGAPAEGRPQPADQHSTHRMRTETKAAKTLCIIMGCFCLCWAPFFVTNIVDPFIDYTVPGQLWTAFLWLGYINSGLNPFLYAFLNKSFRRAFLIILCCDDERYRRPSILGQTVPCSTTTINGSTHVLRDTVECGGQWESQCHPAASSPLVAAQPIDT
Method: Specifically, crude synapse membrane sample was prepared from guinea pig striatum, suspended in 50 mM HEPES buffer (pH 7.4) and used for testing. The test compound having several different concentrations and [3H]GR113808 (final concentration 0.1 nM) were added to this suspension and allowed to react at 37°C. Thirty minutes later, the reaction mixture was filtered by suction with cell harvester. The filter was washed with 50 mM HEPES buffer, and the radioactivity on the filter was counted by liquid scintillation counter. The non-specific binding was determined in the presence of 1 µM GR113808. The concentration of the test compound necessary for 50% inhibition (IC50) was determined from a graph and converted to a Ki value.

[2] = target: T2, 5-HT3 receptor (Rattus norvegicus, UniProt P35563); assay: 5-HT3 receptor binding test ([3H]Granisetron, crude synapse membrane from cerebral cortex); details: for Ki: IC50 converted to Ki, read-out: Affinity for receptor (Ki value, nM) 5-HT3
T2 construct: crude synapse membrane sample was prepared from rat cerebral cortex; from tissue; host or cells: rat cerebral cortex, crude synaptic membranes
T2 sequence (P35563 24-483): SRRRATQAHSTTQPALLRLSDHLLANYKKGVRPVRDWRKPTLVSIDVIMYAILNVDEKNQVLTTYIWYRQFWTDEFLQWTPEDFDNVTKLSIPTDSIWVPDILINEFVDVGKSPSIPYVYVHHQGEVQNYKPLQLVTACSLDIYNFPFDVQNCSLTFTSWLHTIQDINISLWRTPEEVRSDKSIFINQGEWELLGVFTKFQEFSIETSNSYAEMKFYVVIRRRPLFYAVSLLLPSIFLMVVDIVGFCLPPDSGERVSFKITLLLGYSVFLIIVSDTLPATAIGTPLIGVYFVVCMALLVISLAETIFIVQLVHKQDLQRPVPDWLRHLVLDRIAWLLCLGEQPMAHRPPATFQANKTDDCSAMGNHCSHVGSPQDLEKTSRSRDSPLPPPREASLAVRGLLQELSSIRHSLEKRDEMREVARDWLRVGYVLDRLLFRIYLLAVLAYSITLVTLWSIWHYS
Method: 148, pp. 297-299 (1988)], a specific 5-HT3 receptor binding test was run using, as a tracer ligand, endo-1-methyl-N-(9-methyl-9-azabicyclo[3.3.1]non-3-yl)-1H-indazole-3-carboxamide substituted by tritium (hereinafter to be referred to as [3H]Granisetron). Specifically, crude synapse membrane sample was prepared from rat cerebral cortex, suspended in 50 mM HEPES buffer (pH 7.4) and used for testing. The test compound having several different concentrations and [3H]Granisetron (final concentration 1.0 nM) were added to this suspension and allowed to react at 25°C. Thirty minutes later, the reaction mixture was filtered by suction with cell harvester. The filter was washed with 50 mM Tris buffer (pH 7.4), and the radioactivity on the filter was counted using liquid scintillation counter or β-plate. The non-specific binding was determined in the presence of 1 µM Tropisetron. The concentration of the test compound necessary for 50% inhibition (IC50) was determined from a graph and converted to a Ki value.

[3] = test system: Male ddY mice; assay: Stimulation of defecation in mouse; type: in vivo; details: for promotion (%) of number / promotion (%) of wet weight: 2 hours, versus vehicle; for number (of feces) / wet weight (mg) (of feces): feces excreted for 2 hours after oral administration, n=20
Method: Male ddY mice were placed in partition box, and the number and wet weight of feces excreted for 2 hours from immediately after oral administration of the compound of Example 57 were measured.

[4] = test system: Male Hartley guinea pigs; assay: Promotion of colonic transit in guinea pig; type: in vivo; details: for ratio of colonic transit (%): colon removed one hour later; for promotion (%) of colonic transit: versus vehicle
Method: Male Hartley guinea pigs were subjected to laparotomy under ether anesthesia, and a polyethylene tube was inserted into the beginning of colon. The other end was passed under the skin to be exposed from the neck and fixed there. At day 5 postoperation, Evans blue solution was injected into the colon through the polyethylene tube. One hour later, the colon was removed, and the range of the Evans blue solution was measured, which was calculated relative to the entire length of the colon and expressed as transit ratio. The compound of Example 57 was orally administered one hour before injection of the Evans blue solution.

[5] = test system: male Wistar rats; assay: Promotion of gastric emptying in rats; type: in vivo, rat; details: for number of pellets (remaining in stomach): stomach removed one hour later; for promotion (%) of gastric emptying: from comparison with remaining pellets in vehicle group
Method: Barium pellets (ca. 1 mm diameter) coated with polystyrene was intragastrically administered to male Wistar rats. One hour later, stomach was removed, and the remaining pellets were counted. The compound of Example 57 was orally administered one hour before administration of the pellets. The promotion ratio was calculated from the comparison with the number of remaining pellets in the group administered with vehicle.

[6] = [3H]GR113808 0.1 nM, guinea pig striatum membranes, 37°C, 30 min, IC50 converted to Ki, read-out: Affinity for receptor (Ki value, nM) 5-HT4
[7] = values marked * are IC50, [3H]Granisetron 1.0 nM, rat cerebral cortex membranes, 25°C, 30 min, read-out: Affinity for receptor 5-HT3 (∗ shows IC50)
[8] = [3H]Granisetron 1.0 nM, rat cerebral cortex membranes, 25°C, 30 min

SMILES: COc1cc(N)c(Cl)cc1C(=O)NCC1CCN(CCCCCNCc2ccc3ccccc3c2)CC1 [Example 14, 4-amino-5-chloro-2-methoxy-N-((1-(5-(2-naphthylmethylamino)pentyl)piperidin-4-yl)methyl)benzamide]
Ki [1, 6]: 0.97 nM
IC50 [2, 7]: > 1000 nM

SMILES: CCN(CCCCCN1CCC(CNC(=O)c2cc(Cl)c(N)cc2OC)CC1)Cc1ccc(F)cc1 [Example 25, 4-amino-5-chloro-N-((1-(5-(N-ethyl-N-(4-fluorobenzyl)amino)pentyl)piperidin-4-yl)methyl)-2-methoxybenzamide]
Ki [1, 6]: 0.94 nM
IC50 [2, 7]: > 1000 nM

SMILES: CCN(CCCCCCN1CCC(CNC(=O)c2cc(Cl)c(N)cc2OC)CC1)Cc1ccc([N+](=O)[O-])cc1 [Example 47, 4-amino-5-chloro-N-((1-(6-(N-ethyl-N-(4-nitrobenzyl)amino)hexyl)piperidin-4-yl)methyl)-2-methoxybenzamide]
Ki [1, 6]: 2.7 nM
IC50 [2, 7]: > 1000 nM

SMILES: COc1cc(N)c(Cl)cc1C(=O)NCC1CCN(CCCCCOCc2ccccc2)CC1 [Example 53, 4-amino-N-((1-(5-benzyloxypentyl)piperidin-4-yl)methyl)-5-chloro-2-methoxybenzamide]
Ki [1, 6]: 3.5 nM
Ki [2, 8]: 370 nM

SMILES: COc1cc(N)c(Cl)cc1C(=O)NCC1CCN(CCCCCSCc2ccccc2)CC1 [Example 54, 4-amino-N-((1-(5-benzylthiopentyl)piperidin-4-yl)methyl)-5-chloro-2-methoxybenzamide]
Ki [1, 6]: 1.6 nM
Ki [2, 8]: 340 nM

SMILES: COc1cc(N)c(Cl)cc1C(=O)NCC1CCN(CCCCCC(=O)c2ccccc2)CC1 [Example 57, 4-amino-5-chloro-2-methoxy-N-((1-(6-oxo-6-phenylhexyl)piperidin-4-yl)methyl)benzamide]
promotion (%) of number ([3]; 0.1 mg/kg p.o.): 70%
promotion (%) of wet weight ([3]; 0.1 mg/kg p.o.): 69%
number (of feces) ([3]; 0.1 mg/kg p.o.): 3.4±0.3
wet weight (mg) (of feces) ([3]; 0.1 mg/kg p.o.): 59.2 ± 6.5 mg
promotion (%) of number ([3]; 0.3 mg/kg p.o.): 135%
promotion (%) of wet weight ([3]; 0.3 mg/kg p.o.): 136%
number (of feces) ([3]; 0.3 mg/kg p.o., P<0.01): 4.7±0.5
wet weight (mg) (of feces) ([3]; 0.3 mg/kg p.o., P<0.01): 82.7 ± 11.5 mg
promotion (%) of number ([3]; 1 mg/kg p.o.): 130%
promotion (%) of wet weight ([3]; 1 mg/kg p.o.): 120%
number (of feces) ([3]; 1 mg/kg p.o., P<0.01): 4.6±0.6
wet weight (mg) (of feces) ([3]; 1 mg/kg p.o., P<0.01): 77.2 ± 11.9 mg
promotion (%) of number ([3]; 3 mg/kg p.o.): 135%
promotion (%) of wet weight ([3]; 3 mg/kg p.o.): 132%
number (of feces) ([3]; 3 mg/kg p.o., P<0.01): 4.7±0.5
wet weight (mg) (of feces) ([3]; 3 mg/kg p.o., P<0.01): 81.6 ± 10.4 mg
ratio of colonic transit (%) ([4]; 0.1 mg/kg p.o. one hour before Evans blue injection, n=16): 54.5±8.0%
promotion (%) of colonic transit ([4]; 0.1 mg/kg p.o.): 23%
ratio of colonic transit (%) ([4]; 0.3 mg/kg p.o. one hour before Evans blue injection, n=16): 54.7±5.9%
promotion (%) of colonic transit ([4]; 0.3 mg/kg p.o.): 24%
ratio of colonic transit (%) ([4]; 1 mg/kg p.o. one hour before Evans blue injection, n=15, P<0.05): 71.8±6.9 %
promotion (%) of colonic transit ([4]; 1 mg/kg p.o.): 62%
ratio of colonic transit (%) ([4]; 3 mg/kg p.o. one hour before Evans blue injection, n=14, P<0.05): 73.2±6.3 %
promotion (%) of colonic transit ([4]; 3 mg/kg p.o.): 66%
Ki [1, 6]: 2.4 nM
IC50 [2, 7]: > 1000 nM
number of pellets (remaining in stomach) ([5]; 0.3 mg/kg p.o. one hour before barium pellets): 28.2 ±1.3
promotion (%) of gastric emptying ([5]; 0.3 mg/kg p.o.): 0%
number of pellets (remaining in stomach) ([5]; 1 mg/kg p.o. one hour before barium pellets): 24.3 ±2.5
promotion (%) of gastric emptying ([5]; 1 mg/kg p.o.): 14%
number of pellets (remaining in stomach) ([5]; 3 mg/kg p.o. one hour before barium pellets, P<0.05): 19.0 ±2.6
promotion (%) of gastric emptying ([5]; 3 mg/kg p.o.): 32%
number of pellets (remaining in stomach) ([5]; 10 mg/kg p.o. one hour before barium pellets, P<0.01): 13.3 ±3.0
promotion (%) of gastric emptying ([5]; 10 mg/kg p.o.): 53%

SMILES: COc1cc(N)c(Cl)cc1C(=O)NCC1CCN(CCCCCCC(=O)c2ccccc2)CC1 [Example 58, 4-amino-5-chloro-2-methoxy-N-((1-(7-oxo-7-phenylheptyl)piperidin-4-yl)methyl)benzamide]
Ki [1, 6]: 1.5 nM
IC50 [2, 7]: > 1000 nM

SMILES: COc1ccc(C(=O)CCCCCN2CCC(CNC(=O)c3cc(Cl)c(N)cc3OC)CC2)cc1Cl [Example 73, 4-amino-5-chloro-N-((1-(6-(3-chloro-4-methoxyphenyl)-6-oxohexyl)piperidin-4-yl)methyl)-2-methoxybenzamide]
Ki [1, 6]: 1.8 nM
IC50 [2, 7]: > 1000 nM

SMILES: COc1ccc(C(=O)CCCCCN2CCC(CNC(=O)c3cc(Cl)c(N)cc3OC)CC2)cc1F [Example 74, 4-amino-5-chloro-N-((1-(6-(3-fluoro-4-methoxyphenyl)-6-oxohexyl)piperidin-4-yl)methyl)-2-methoxybenzamide]
Ki [1, 6]: 5.1 nM
IC50 [2, 7]: > 1000 nM

SMILES: COc1cc(N)c(Cl)cc1C(=O)NCC1CCN(CCCCCC(=O)c2ccc(O)cc2)CC1 [Example 75, 4-amino-5-chloro-N-((1-(6-(4-hydroxyphenyl)-6-oxohexyl)piperidin-4-yl)methyl)-2-methoxybenzamide]
Ki [1, 6]: 1.5 nM
IC50 [2, 7]: > 1000 nM

SMILES: COc1cc(N)c(Cl)cc1C(=O)NCC1CCN(CCCCCS(=O)(=O)c2ccccc2)CC1 [Example 84, 4-amino-5-chloro-2-methoxy-N-((1-(5-phenylsulfonylpentyl)piperidin-4-yl)methyl)benzamide hydrochloride]
Ki [1, 6]: 1.4 nM
IC50 [2, 7]: > 1000 nM

SMILES: CCn1cc(C(=O)CCCCCN2CCC(CNC(=O)c3cc(Cl)c(N)cc3OC)CC2)c2ccccc21 [Example 93, 4-amino-5-chloro-2-methoxy-N-((1-(6-(1-ethyl-1H-indol-3-yl)-6-oxohexyl)piperidin-4-yl)methyl)benzamide]
Ki [1]: 0.47 nM
IC50 [2]: > 1000 nM

Continued by falling Ki [1, 6], values first:

Ki [1, 6]: 0.84 nM
IC50 [2, 7]: > 1000 nM
SMILES: CCCN(CCCCCN1CCC(CNC(=O)c2cc(Cl)c(N)cc2OC)CC1)Cc1ccccc1 [Example 33, 4-amino-5-chloro-2-methoxy-N-((1-(5-(N-n-propyl-N-benzylamino)pentyl)piperidin-4-yl)methyl)benzamide]

Ki [1, 6]: 0.67 nM
IC50 [2, 7]: > 1000 nM
SMILES: CCN(CCCCCCN1CCC(CNC(=O)c2cc(Cl)c(N)cc2OC)CC1)Cc1ccccc1 [Example 44, 4-amino-5-chloro-N-((1-(6-(N-ethyl-N-benzylamino)hexyl)piperidin-4-yl)methyl)-2-methoxy benzamide]

Ki [1, 6]: 0.62 nM
IC50 [2, 7]: > 1000 nM
SMILES: CCN(CCCCN1CCC(CNC(=O)c2cc(Cl)c(N)cc2OC)CC1)Cc1ccc(Cl)c(Cl)c1 [Example 42, 4-amino-5-chloro-N-((1-(4-(N-(3,4-dichlorobenzyl)-N-ethylamino)butyl)piperidin-4-yl)methyl)-2-methoxybenzamide]

Ki [1, 6]: 0.51 nM
IC50 [2, 7]: > 1000 nM
SMILES: COc1cc(N)c(Cl)cc1C(=O)NCC1CCN(CCCCCNCC2CCCCC2)CC1 [Example 11, 4-amino-5-chloro-N-((1-(5-(cyclohexylmethylamino)pentyl)piperidin-4-yl)methyl)-2-methoxybenzamide]

Ki [1, 6]: 0.5 nM
IC50 [2, 7]: > 1000 nM
SMILES: COc1cc(N)c(Cl)cc1C(=O)NCC1CCN(CCCCCC(=O)c2cccc3ccccc23)CC1 [Example 81, 4-amino-5-chloro-N-((1-(6-(1-naphthyl)-6-oxohexyl)piperidin-4-yl)methyl)-2-methoxybenzamide hydrochloride]

Ki [1, 6]: 0.34 nM
IC50 [2, 7]: > 1000 nM
SMILES: COc1cc(N)c(Cl)cc1C(=O)NCC1CCN(CCCCCC(=O)c2cn(C)c3ccccc23)CC1 [Example 77, 4-amino-5-chloro-2-methoxy-N-((1-(6-(1-methyl-1H-indol-3-yl)-6-oxohexyl)piperidin-4-yl)methyl)benzamide]
